Results on four molecules are retold here after patent US20230114728A1 (Venatorx Pharmaceuticals, Inc., priority 2019, published 2023).

SMILES strings stand for the structures. Converted amounts (≈) assume the structure as drawn.

One experiment deals with A. baumannii ATCC 19606. As to the kind of experiment: Broth microdilution MIC in CAMHB. The experiment is classed as cell-based. The following applies: Acinetobacter baumannii, ATCC19606; MHB; read-out: Minimum Inhibitory Concentration, A. baumannii ATCC 19606. In a few lines:
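CLSI broth microdilution in CAMHB: 2-fold compound dilutions inoculated at 2-8×10^5 CFU/mL from 3-5 h log-phase cultures. Incubated at 37 °C for 16-20 h (Enterobacteriaceae, Pseudomonas); MIC read visually as lowest concentration without growth. Strains include hyper-permeable and efflux-deficient mutants.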
(Dilution methods test growth across graded concentrations, often in twofold steps.)

The subject of experiment [1] is P. aeruginosa (ΔmexAB-oprM). The experiment is described as follows: Broth microdilution MIC in CAMHB. Format: cell-based. The following applies: Pseudomonas aeruginosa, read-out: Minimum Inhibitory Concentration, P. aeruginosa ΔmexAB-OprM. In short, it runs like this:
(§1)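 Standard CLSI-style microdilution in cation-adjusted Mueller Hinton broth, 2-fold dilution series, incubated 16-20 h at 37° C; endpoint was visual absence of growth.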

Another experiment deals with E. coli D22. The experiment is described as follows: Broth microdilution MIC in CAMHB. The experiment is classed as cell-based. The following applies: Escherichia coli; MHB; hyper-permeable E. coli D22; read-out: Minimum Inhibitory Concentration, E. coli D22. In a few lines:
as §1

Experiment [2] concerns K. pneumoniae 848844 producing SHV-11 and KPC-2. As to the kind of experiment: Broth microdilution MIC in CAMHB. The following applies: Klebsiella pneumoniae, read-out: Minimum Inhibitory Concentration, K. pneumoniae 848844. The experiment is classed as cell-based. In short, it runs like this:
as §1

A further experiment deals with P. aeruginosa ATCC 35151. The experiment is described as follows: Broth microdilution MIC in CAMHB. Format: cell-based. The following applies: Pseudomonas aeruginosa, ATCC35151; MHB; hyper-permeable strain; read-out: Minimum Inhibitory Concentration, P. aeruginosa ATCC 35151. In a few lines: as §1
The subject of experiment [3] is K. pneumoniae SI-117 producing VIM-1. As to the kind of experiment: Broth microdilution MIC in CAMHB. The experiment is classed as cell-based. The following applies: Klebsiella pneumoniae, read-out: Minimum Inhibitory Concentration, K. pneumoniae SI-117. In short, it runs like this: as §1
The next experiment relates to E. coli AG100. As to the kind of experiment: Broth microdilution MIC in CAMHB. The experiment is classed as cell-based. The following applies: Escherichia coli; MHB; wild-type parent strain E. coli AG100; read-out: Minimum Inhibitory Concentration, E. coli AG100. In a few lines: as §1
In experiment [4] the test system is K. pneumoniae UMM producing SHV-5 and KPC-2. The experiment is described as follows: Broth microdilution MIC in CAMHB. The following applies: Klebsiella pneumoniae, read-out: Minimum Inhibitory Concentration, K. pneumoniae UMM. The experiment is classed as cell-based. In a few lines:
as §1

A further experiment relates to P. aeruginosa ATCC 27853. As to the kind of experiment: Broth microdilution MIC in CAMHB. The following applies: Pseudomonas aeruginosa, ATCC27853; MHB; read-out: Minimum Inhibitory Concentration, P. aeruginosa ATCC 27853. Format: cell-based. In a few lines:
as §1

A further experiment deals with E. coli AG100A. As to the kind of experiment: Broth microdilution MIC in CAMHB. Format: cell-based. The following applies: Escherichia coli, read-out: Minimum Inhibitory Concentration, E. coli AG100A. In a few lines: as §1
The next experiment concerns E. coli ATCC 25922. As to the kind of experiment: Broth microdilution MIC in CAMHB. The experiment is classed as cell-based. The following applies: Escherichia coli, ATCC25922; MHB; E. coli ATCC 25922; read-out: Minimum Inhibitory Concentration, E. coli 25922. In a few lines:
as §1

The test system of the next experiment is E. coli 901C. As to the kind of experiment: Broth microdilution MIC in CAMHB. Format: cell-based. The following applies: Escherichia coli; MHB; hyper-permeable E. coli 901C; read-out: Minimum Inhibitory Concentration, E. coli 901C. In short, it runs like this: as §1
The target in another experiment is T1, E. coli K12 PBP3 (Escherichia coli, UniProt P0AD68).
T1 construct: made in house
As to the kind of experiment: biochemical. The experiment is classed as binding. The text has this:
Example I: Experimental Method for Penicillin-Binding Protein Binding Assays with Bocillin-FL Via Fluorescence Polarization
To determine the ability of boronic acid-based test PBP inhibitors to bind Penicillin Binding Proteins (PBPs), Bocillin-FL (fluorescently-labeled penicillin V; ThermoFisher Scientific) was used in a fluorescence polarization (FP) competition binding assay to assess inhibitor binding to PBP2, PBP3 or PBP4 from Escherichia coli (K12), PBP3 from Pseudomonas aeruginosa (PA01), PBP1a, PBP2 and PBP3 from Acinetobacter baumannii (ATCC 19606), and PBP2 from Neiserria gonorrheae (FA19). PBPs were cloned and purified as described previously (E. coli PBPs, King, D. T, et al., ACS Infectious Diseases 2015, 1, 175-184; P. aeruginosa PBP3, Han et. al., PNAS 2010, 107 (51), 22002-22007; A. baumannii PBPs, Penwell et. al., Antimicrob. Agents Chemother. 2015, 59 (3), 1680-1689; N. gonorrhoeae PBP2, Singh et. al., J Biol. Chem. 2019, 294 (38), 14020-14032). To establish assay conditions for competition binding, enzyme titration/saturation binding experiments were initially performed. Bocillin-FL was prepared at 0.2 μM in a buffer comprised of 50 mM Hepes (pH 8.0), 300 mM NaCl and 5% (v/v) glycerol for reactions with E. coli, P. aeruginosa and N. gonorrhoeae PBPs, and 25 mM Tris (pH 8.0), 200 mM NaCl and 10% (v/v) glycerol and 0.005% (v/v) Tween 20 for reactions with A. baumannii PBPs. Saturation binding was performed by mixing 40 μl of PBP solutions ranging in concentrations from 0-24 μM with 40 μl of the 0.2 μM Bocillin-FL solution, in individual wells of a black 384-well microplate. FP was measured immediately upon mixing (Excitation, 490 nm; Emission, 520 nm; g-factor, 0.96), using a Cytation3 (BioTek) microplate reader and measured continuously for up to 120 minutes. […] The competition binding assay (80 μl final volume) was validated using beta-lactams and PBPs at final concentrations of: 1.5 μM, E. coli PBP3; 0.75 μM, P. aeruginosa PBP3; 1 μM A. baumannii PBP1a; 2.5 μM A. baumannii PBP2; 0.2 μM A. baumannii PBP3; and […] N. gonorrhoeae PBP2. Bocillin-FL was at 0.1 μM (0.05 μM with A. baumannii PBP1a) and beta-lactam concentrations ranged from 0-1000 μM. […] Bocillin-FL was added and the FP immediately measured for up to 60 minutes (90 minutes for E. coli PBP2). […] The beta-lactam potency was reported as the concentration of beta-lactam required to reduce the amount of PBP bound-Bocillin-FL by 50% (EC50). […] Binding assays for boronic acid PBP inhibitors were performed in an identical fashion for the respective PBPs

The target of a further experiment is T2, P. aeruginosa PBP3 (Pseudomonas aeruginosa, UniProt G3XD46).
T2 construct: made in house
The experiment is described as follows: Bocillin-FL fluorescence polarization competition binding assay, P. aeruginosa PBP3. The following applies: fluorescence polarization competition binding assay using Bocillin-FL. In a few lines: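 Inhibitor competition with Bocillin-FL for P. aeruginosa PBP3 was followed by fluorescence polarization on a Cytation3 (BioTek) reader, using g-factor 0.96, 490 nm excitation and 520 nm emission. The enzyme was at 0.75 μM and the probe at 0.1 μM in Hepes/NaCl/glycerol buffer, 80 μl per well. FP was recorded immediately after probe addition for up to 60 minutes. Potency was expressed as EC50, the concentration that reduces bound probe by 50%.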
(In general: Polarisation of emitted light reports the rotation of a fluorescent probe.)

T1 sequence (P0AD68 1-577): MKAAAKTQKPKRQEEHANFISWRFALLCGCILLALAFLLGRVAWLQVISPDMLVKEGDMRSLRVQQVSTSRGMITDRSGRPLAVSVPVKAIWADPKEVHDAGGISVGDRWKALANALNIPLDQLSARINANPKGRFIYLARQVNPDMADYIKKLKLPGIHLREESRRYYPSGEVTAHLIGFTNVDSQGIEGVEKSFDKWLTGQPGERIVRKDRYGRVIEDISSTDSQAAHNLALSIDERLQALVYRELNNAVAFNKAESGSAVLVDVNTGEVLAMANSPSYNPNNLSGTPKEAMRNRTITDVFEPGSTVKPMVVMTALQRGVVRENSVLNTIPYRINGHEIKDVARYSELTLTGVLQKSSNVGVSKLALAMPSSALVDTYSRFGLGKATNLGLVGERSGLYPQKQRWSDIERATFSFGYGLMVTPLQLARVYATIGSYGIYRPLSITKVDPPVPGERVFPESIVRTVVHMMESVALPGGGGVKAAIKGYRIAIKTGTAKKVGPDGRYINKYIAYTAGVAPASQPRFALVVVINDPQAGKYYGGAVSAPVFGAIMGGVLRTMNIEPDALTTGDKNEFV
T2 sequence (G3XD46 whole entry): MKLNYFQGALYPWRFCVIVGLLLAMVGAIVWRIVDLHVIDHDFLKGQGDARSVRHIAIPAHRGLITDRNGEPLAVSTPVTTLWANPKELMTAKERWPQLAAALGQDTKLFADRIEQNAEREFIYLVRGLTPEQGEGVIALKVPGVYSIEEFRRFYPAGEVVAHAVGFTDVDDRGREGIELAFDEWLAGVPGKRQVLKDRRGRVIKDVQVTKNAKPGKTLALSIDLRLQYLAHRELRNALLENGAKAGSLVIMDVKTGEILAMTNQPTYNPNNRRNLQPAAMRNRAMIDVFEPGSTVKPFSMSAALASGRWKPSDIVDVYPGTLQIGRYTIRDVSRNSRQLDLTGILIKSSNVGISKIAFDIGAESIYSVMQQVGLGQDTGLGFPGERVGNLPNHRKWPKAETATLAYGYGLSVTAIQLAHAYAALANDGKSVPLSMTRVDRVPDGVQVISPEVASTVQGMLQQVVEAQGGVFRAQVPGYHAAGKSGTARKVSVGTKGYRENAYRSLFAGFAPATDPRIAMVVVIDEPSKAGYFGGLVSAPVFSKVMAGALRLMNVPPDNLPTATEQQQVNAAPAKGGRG

What is called EC50 is the concentration that produces a half-maximal response. Read a high EC50 as a less potent agent. Consider `NCCN1CCCN(C(=O)N[C@@H](C(=O)N[C@H]2Cc3cccc(C(=O)O)c3OB2O)c2c(F)cc(O)cc2F)C1=O` (single isomer, unassigned) [Example 230], for which the MIC in the experiment on A. baumannii ATCC 19606 is greater than 128 µg/mL; in experiment [1] it was 32 to 64 µg/mL (≈ 57 to 114 µM); in the experiment with E. coli D22, greater than 128 µg/mL; in experiment [2], greater than 128 µg/mL; in the experiment on P. aeruginosa ATCC 35151, 2 to 4 µg/mL (≈ 3.56 to 7.13 µM); in experiment [3], 32 to 64 µg/mL (≈ 57 to 114 µM). Moreover, the MIC in the experiment on E. coli AG100 was greater than 128 µg/mL; in experiment [4] it was 2 to 4 µg/mL (≈ 3.56 to 7.13 µM); in the experiment on P. aeruginosa ATCC 27853, greater than 128 µg/mL; in the experiment with E. coli AG100A it was greater than 128 µg/mL; with E. coli ATCC 25922 it was greater than 128 µg/mL; in the experiment on E. coli 901C, greater than 128 µg/mL. This molecule also showed an EC50 at E. coli K12 PBP3 of 30 to 500 µM. Also, at P. aeruginosa PBP3, the “P. aeruginosa PBP3 Potency” value was “C (C represents a potency between 10 and 30 μM)”.
`CCN1C[C@H](C)N(C(=O)NC(C(=O)N[C@H]2Cc3cccc(C(=O)O)c3OB2O)c2c(F)cc(O)cc2F)C(=O)C1=O` (stereo partly drawn) [Example 232, (3R)-3-(2-(2,6-difluoro-4-hydroxyphenyl)-2-((S)-4-ethyl-6-methyl-2,3-dioxopiperazine-1-carboxamido)acetamido)-2-hydroxy-3,4-dihydro-2H-benzo[e][1,2]oxaborinine-8-carboxylic acid]: the MIC with A. baumannii ATCC 19606 is greater than 128 µg/mL; in [1], 8 to 16 µg/mL (≈ 13.9 to 27.9 µM); in the experiment with E. coli D22, 32 to 64 µg/mL (≈ 55.7 to 111 µM); in [2], 8 to 16 µg/mL (≈ 13.9 to 27.9 µM); in the experiment with P. aeruginosa ATCC 35151, 2 to 4 µg/mL (≈ 3.48 to 6.96 µM); in experiment [3], 2 to 4 µg/mL (≈ 3.48 to 6.96 µM). Also, the MIC in the experiment with E. coli AG100 was 32 to 64 µg/mL (≈ 55.7 to 111 µM); in experiment [4] it was less than 0.25 µg/mL; with P. aeruginosa ATCC 27853 it was greater than 128 µg/mL; with E. coli AG100A, 32 to 64 µg/mL (≈ 55.7 to 111 µM); in the experiment with E. coli ATCC 25922 it was 8 to 16 µg/mL (≈ 13.9 to 27.9 µM); in the experiment with E. coli 901C, 32 to 64 µg/mL (≈ 55.7 to 111 µM). The concentration giving a half-maximal response (EC50) at E. coli K12 PBP3 was less than 30 µM. Further, the “P. aeruginosa PBP3 Potency” value at P. aeruginosa PBP3 is “D (D represents a potency <10 μM)”.
Consider `C[C@H]1CN(CCF)C(=O)C(=O)N1C(=O)NC(C(=O)N[C@H]1Cc2cccc(C(=O)O)c2OB1O)c1c(F)cc(O)cc1F` (stereo partly drawn) [Example 233, (3R)-3-(2-(2,6-difluoro-4-hydroxyphenyl)-2-((S)-4-(2-fluoroethyl)-6-methyl-2,3-dioxopiperazine-1-carboxamido)acetamido)-2-hydroxy-3,4-dihydro-2H-benzo[e][1,2]oxaborinine-8-carboxylic acid], for which the MIC is greater than 128 µg/mL with A. baumannii ATCC 19606; greater than 128 µg/mL in [1]; 32 to 64 µg/mL (≈ 54 to 108 µM) with E. coli D22; 8 to 16 µg/mL (≈ 13.5 to 27 µM) in experiment [2]; 8 to 16 µg/mL (≈ 13.5 to 27 µM) in the experiment with P. aeruginosa ATCC 35151; 2 to 4 µg/mL (≈ 3.38 to 6.75 µM) in experiment [3]. Moreover, the MIC in the experiment on E. coli AG100 was 32 to 64 µg/mL (≈ 54 to 108 µM); in experiment [4], less than 0.25 µg/mL; in the experiment on P. aeruginosa ATCC 27853 it was greater than 128 µg/mL; in the experiment with E. coli AG100A it was 32 to 64 µg/mL (≈ 54 to 108 µM); with E. coli ATCC 25922, 8 to 16 µg/mL (≈ 13.5 to 27 µM); in the experiment with E. coli 901C, 32 to 64 µg/mL (≈ 54 to 108 µM). The molecule also came in with an EC50 on E. coli K12 PBP3 of less than 30 µM. Further, the “P. aeruginosa PBP3 Potency” value on P. aeruginosa PBP3 was “D (D represents a potency <10 μM)”.
Consider `C[C@H]1CN(CCN)C(=O)C(=O)N1C(=O)NC(C(=O)N[C@H]1Cc2cccc(C(=O)O)c2OB1O)c1c(F)cc(O)cc1F` (stereo partly drawn) [Example 234, (3R)-3-(2-((S)-4-(2-aminoethyl)-6-methyl-2,3-dioxopiperazine-1-carboxamido)-2-(2,6-difluoro-4-hydroxyphenyl)acetamido)-2-hydroxy-3,4-dihydro-2H-benzo[e][1,2]oxaborinine-8-carboxylic acid], for which the MIC is greater than 128 µg/mL in the experiment with A. baumannii ATCC 19606; 8 to 16 µg/mL (≈ 13.6 to 27.2 µM) in experiment [1]; 8 to 16 µg/mL (≈ 13.6 to 27.2 µM) in the experiment with E. coli D22; 8 to 16 µg/mL (≈ 13.6 to 27.2 µM) in experiment [2]; 2 to 4 µg/mL (≈ 3.39 to 6.79 µM) in the experiment with P. aeruginosa ATCC 35151; 2 to 4 µg/mL (≈ 3.39 to 6.79 µM) in experiment [3]. Further, the MIC in the experiment with E. coli AG100 is 32 to 64 µg/mL (≈ 54.3 to 109 µM); in experiment [4], 0.5 to 1 µg/mL (≈ 0.848 to 1.7 µM); in the experiment with P. aeruginosa ATCC 27853, greater than 128 µg/mL; in the experiment on E. coli AG100A, 32 to 64 µg/mL (≈ 54.3 to 109 µM); in the experiment with E. coli ATCC 25922 it was 8 to 16 µg/mL (≈ 13.6 to 27.2 µM); in the experiment with E. coli 901C it was 32 to 64 µg/mL (≈ 54.3 to 109 µM). Moreover, the EC50 at E. coli K12 PBP3 was less than 30 µM. For the same molecule, the “P. aeruginosa PBP3 Potency” value at P. aeruginosa PBP3 is “D (D represents a potency <10 μM)”.
